System: NSAID-induced gastric ulcers
Experiment: NSAID-Induced Ulcers in the Sprague-Dawley Rat (gastric ulcer assay)
Type: in vivo
Design: Inhibition of Gastric Ulcers: unit not given here
From the text: When a selected NSAID, for example, indomethacin, is combined with cyclo-(N-methyl-Ala-Tyr-D-Trp-Lys-Val-Phe) according to the present invention, the following results are obtained from the well-established gastric ulcer assay in the Sprague-Dawley male rat is described below:
Protocol: NSAID-Induced Ulcers in the Sprague-Dawley Rat
Twenty-four (24) hour fasted, male, Sprague-Dawley rats, 130 to 150 gms. each, are randomized into groups for assay. The animals are housed to wire-bottom cages without bedding and allowed free-access to water throughout the fasting and experimental periods. Ulcers are then induced by the peroral administration of NSAID at dose levels predetermined to provoke a similar number of ulcers within 4 hours of additional fasting*. Each NSAID is prepared in 0.5% methyl cellulose vehicle and given at a volume of 10 ml/kg rounded to the nearest 0.1 ml. Either 0.5% methylcellulose vehicle or compound A is co-administered perorally with the NSAID bringing the total volume to 20 ml/kg rounded to the nearest 0.2 ml.
*For example: Indomethacin-20 mg/kg; Naproxen-50 mg/kg; Ibuprofen-100 mg/kg; Diclofenac-75 mg/kg.
Four (4) hours after the administration of NSAID+vehicle, or NSAID+compound A, the animals are sacrificed by CO2 inhalation, the stomachs removed, excised along the inner curvature, washed carefully with cool tap water and placed in 0.9% saline. When all groups have been processed, the mucosal region of the stomachs are examined under a magnifying lens and scored according to the total number of lesions present. Group scores represent the mean score of animals in that group. P values are determined by Student's "t" test, comparing the ulcer scores of individual rats given NSAID+compound A to those dosed with NSAID+vehicle only.

[1] = Compound A 0.01 mg/kg p.o. co-administered with Diclofenac 75 mg/kg p.o., 4 h
[2] = Compound A 0.01 mg/kg p.o. co-administered with Ibuprofen 100 mg/kg p.o., 4 h
[3] = Compound A 0.01 mg/kg p.o. co-administered with Indomethacin 20 mg/kg p.o., 4 h
[4] = Compound A 0.01 mg/kg p.o. co-administered with Naproxen 50 mg/kg p.o., 4 h
[5] = Compound A 0.1 mg/kg p.o. co-administered with Diclofenac 75 mg/kg p.o., 4 h
[6] = Compound A 0.1 mg/kg p.o. co-administered with Ibuprofen 100 mg/kg p.o., 4 h
[7] = Compound A 0.1 mg/kg p.o. co-administered with Indomethacin 20 mg/kg p.o., 4 h
[8] = Compound A 0.1 mg/kg p.o. co-administered with Naproxen 50 mg/kg p.o., 4 h
[9] = Compound A 1.0 mg/kg p.o. co-administered with Diclofenac 75 mg/kg p.o., 4 h
[10] = Compound A 1.0 mg/kg p.o. co-administered with Ibuprofen 100 mg/kg p.o., 4 h
[11] = Compound A 1.0 mg/kg p.o. co-administered with Indomethacin 20 mg/kg p.o., 4 h
[12] = Compound A 1.0 mg/kg p.o. co-administered with Naproxen 50 mg/kg p.o., 4 h

`O=C(O)Cc1ccccc1Nc1c(Cl)cccc1Cl` [Diclofenac, diclofenac, reference compound] was tested, and the “Inhibition of Gastric Ulcers” value (Diclofenac 75 mg/kg p.o. + vehicle (control), 4 h) was 0 and the “No. of Gastric Ulcers M ± S.E.M.” value (Diclofenac 75 mg/kg p.o. + vehicle (control), fasted male rats, 4 h after dosing) was 14.0 ± 1.6.
“cyclo-(N-methyl-Ala-Tyr-D-Trp-Lys-Val-Phe) [Compound A]” was tested, and the “Inhibition of Gastric Ulcers” value [1] was 0, the “No. of Gastric Ulcers M ± S.E.M.” value [1] was 18.7 ± 2.0 and the “Inhibition of Gastric Ulcers” value [2] was 36.4. The “No. of Gastric Ulcers M ± S.E.M.” value [2] was 8.2 ± 1.0, the “Inhibition of Gastric Ulcers” value [3] was 0 and the “No. of Gastric Ulcers M ± S.E.M.” value [3] was 18.6 ± 4.4. The “Inhibition of Gastric Ulcers” value [4] was 0, the “No. of Gastric Ulcers M ± S.E.M.” value [4] was 14.0 ± 3.0 and the “Inhibition of Gastric Ulcers” value [5] was 47.9. For the same compound, the “No. of Gastric Ulcers M ± S.E.M.” value [5] was 7.3 ± 2.3, the “Inhibition of Gastric Ulcers” value [6] was 87.6 and the “No. of Gastric Ulcers M ± S.E.M.” value [6] was 1.6 ± 0.6. The “Inhibition of Gastric Ulcers” value [7] was 50.3, the “No. of Gastric Ulcers M ± S.E.M.” value [7] was 9.0 ± 1.9 and the “Inhibition of Gastric Ulcers” value [8] was 67.7. The “No. of Gastric Ulcers M ± S.E.M.” value [8] was 5.0 ± 2.5, the “Inhibition of Gastric Ulcers” value [9] was 99.3 and the “No. of Gastric Ulcers M ± S.E.M.” value [9] was 0.1 ± 0.1. The “Inhibition of Gastric Ulcers” value [10] was 92.3, the “No. of Gastric Ulcers M ± S.E.M.” value [10] was 1.0 ± 0.5 and the “Inhibition of Gastric Ulcers” value [11] was 83.4. The “No. of Gastric Ulcers M ± S.E.M.” value [11] was 3.0 ± 1.3, the “Inhibition of Gastric Ulcers” value [12] was 83.9 and the “No. of Gastric Ulcers M ± S.E.M.” value [12] was 2.5 ± 1.4.
`COc1ccc2c(c1)c(CC(=O)O)c(C)n2C(=O)c1ccc(Cl)cc1` [Indomethacin, indomethacin, reference compound] was tested, and the “Inhibition of Gastric Ulcers” value (Indomethacin 20 mg/kg p.o. + vehicle (control), 4 h) was 0 and the “No. of Gastric Ulcers M ± S.E.M.” value (Indomethacin 20 mg/kg p.o. + vehicle (control), fasted male rats, 4 h after dosing) was 18.1 ± 1.6.
`CC(C)Cc1ccc(C(C)C(=O)O)cc1` (stereo not drawn) [Ibuprofen, ibuprofen, reference compound] was tested, and the “Inhibition of Gastric Ulcers” value (Ibuprofen 100 mg/kg p.o. + vehicle (control), 4 h) was 0.
For `COc1ccc2cc([C@H](C)C(=O)O)ccc2c1` [Naproxen, naproxen, reference compound], the “Inhibition of Gastric Ulcers” value (Naproxen 50 mg/kg p.o. + vehicle (control), 4 h) was 0.

Source: patent US4474766A, “Anti-inflammatory/analgesic combination of cyclo-(N-methyl-Ala-Tyr-D-Trp-Lys-Val-Phe) and a selected non-steroidal anti-inflammatory drug (NSAID)” (Merck & Co., Inc., priority 1983, dated 1984)
